# In patent US9284296B2, “Bipyridine sulfonamide derivatives for the treatment of neurodegenerative diseases or conditions” (AUBERGINE PHARMACEUTICALS LLC, priority 2010, dated 2016):
# System: secretion of amyloid peptide β1-40 (Aβ1-40)
# Test: Inhibition of β-amyloid secretion (CHO7w cells stably transfected with human APP, ELISA)
# Type: cell-based
# Conditions: CHO-7W, 24 h incubation, range stated for the listed compounds together
# Experimental: The inhibition caused by the compounds on the secretion of amyloid peptide β1-40 (Aβ1-40) was determined by measuring the levels of this peptide in cell supernatants after incubating the cells with several concentrations of the tested compound. A CHO7w cell line, stably transfected with human amyloid precursor protein (APP), was used. Cells were dispensed in 96-well culture plates (5,000 cells/well) and grown in DMEM supplemented with 2% (v/v) foetal bovine serum, 100 U/ml penicillin, 100 μg/ml streptomycin, 2 mM L-glutamine and 200 μg/ml G418 in the presence of several concentrations of the tested compound which had been previously dissolved in DMSO (1% (v/v) DMSO final concentration). After a 24 h incubation the amount of Aβ1-40 secreted to the medium was measured with an ELISA-based commercial kit (Human Amyloid β-40 ELISA High Sensitivity Kit, Millipore, Billerica, Mass., USA) using absorbance at 450 nm as the final readout. In the culture plate several wells were included as a control for lack of Aβ1-40 secretion, in these wells the cells were incubated in the presence of 16% (v/v) DMSO to inhibit cell growth therefore abolishing Aβ1-40 secretion. Likewise, several wells were also included as a control for full Aβ1-40 secretion, in these wells the cells were grown in the presence of 1% (v/v) DMSO. The absorbance of each tested sample was normalized to that of the control wells, so that for every compound concentration the percentage of inhibition was calculated with the following equation:
# [formula] where “S” is the absorbance of the sample being considered, “E” is the average absorbance of wells lacking Aβ1-40 secretion and “B” is the average absorbance of wells with full Aβ1-40 secretion. The inhibition values obtained at every compound concentration were fitted to a 4-parameters isotherm equation, as described above, to calculate the […] (i.e., the concentration causing 50% of inhibition of Ab1-40 secretion).
row,IC50 [nM],Structure (SMILES)
1,300 to 42000,COc1cc(CNS(=O)(=O)c2ccc(-c3cnco3)s2)nc(-c2ccccn2)c1 [Compound 55]
2,300 to 42000,COc1cc(CNS(=O)(=O)c2ccc(C(F)(F)F)cc2[N+](=O)[O-])nc(-c2ccccn2)c1 [Compound 102]
3,300 to 42000,COc1cc(CNS(=O)(=O)c2cnc(Cl)s2)nc(-c2ccccn2)c1 [Compound 106]
4,300 to 42000,COc1cc(CNS(=O)(=O)c2cc(C(F)(F)F)ccc2F)nc(-c2ccccn2)c1 [Compound 66]
5,300 to 42000,"COc1cc(CNS(=O)(=O)c2ccc(C(F)(F)F)cc2)nc(-c2ccccn2)c1 [Compound 4, N-(4-Methoxy-[2,2′]bipyridinyl-6-ylmethyl)-4-trifluoromethyl-benzenesulfonamide]"
6,300 to 42000,COc1cc(CNS(=O)(=O)c2ccc3c(c2)OCCO3)nc(-c2ccccn2)c1 [Compound 87]
7,300 to 42000,COc1cc(CNS(=O)(=O)c2cc(Cl)ccc2F)nc(-c2ccccn2)c1 [Compound 44]
8,300 to 42000,COc1cc(CNS(=O)(=O)c2cnc(Cl)nc2)nc(-c2ccccn2)c1 [Compound 107]
9,300 to 42000,COc1cc(CNS(=O)(=O)c2c(C)cccc2Cl)nc(-c2ccccn2)c1 [Compound 84]
10,300 to 42000,COc1cc(CNS(=O)(=O)c2ccc(-c3ccccn3)s2)nc(-c2ccccn2)c1 [Compound 46]
11,300 to 42000,COc1cc(CNS(=O)(=O)c2ccc(-c3ccccc3)cc2)nc(-c2ccccn2)c1 [Compound 89]
12,300 to 42000,COc1cc(CNS(=O)(=O)c2c(F)cc(OC)cc2F)nc(-c2ccccn2)c1 [Compound 85]
13,300 to 42000,COc1cc(CNS(=O)(=O)c2ccc(C(C)(C)C)cc2)nc(-c2ccccn2)c1 [Compound 88]
14,300 to 42000,COC(=O)c1ccc(S(=O)(=O)NCc2cc(OC)cc(-c3ccccn3)n2)o1 [Compound 51]
15,300 to 42000,"CCN(CC)CCOc1cc(CN(Cc2cc(OCCN(CC)CC)cc(-c3ccccn3)n2)S(=O)(=O)c2cccs2)nc(-c2ccccn2)c1 [Compound 29, Thiophene-2-sulfonic acid bis-[4-(2-diethylamino-ethoxy)-[2,2′]bipyridinyl-6-ylmethyl]-amide]"
16,300 to 42000,"COc1ccc(S(=O)(=O)NCc2cc(OC)cc(-c3ccccn3)n2)cc1 [Compound 38, 4-Methoxy-N-(4-methoxy-[2,2′]bipyridinyl-6-ylmethyl)-benzenesulfonamide]"
17,300 to 42000,COc1cc(CNS(=O)(=O)CCC(F)(F)F)nc(-c2ccccn2)c1 [Compound 86]
18,300 to 42000,COc1cc(CNS(=O)(=O)c2ccc([N+](=O)[O-])cc2)nc(-c2ccccn2)c1 [Compound 74]
19,300 to 42000,COc1cc(CNS(=O)(=O)c2c(Cl)cccc2Cl)nc(-c2ccccn2)c1 [Compound 97]
20,300 to 42000,COc1cc(CNS(=O)(=O)c2cc3ccccc3s2)nc(-c2ccccn2)c1 [Compound 73]
21,300 to 42000,COc1cc(CNS(=O)(=O)c2ccc(CNC(C)=O)s2)nc(-c2ccccn2)c1 [Compound 52]
22,300 to 42000,COc1cc(CNS(=O)(=O)c2ccc(-c3ccno3)s2)nc(-c2ccccn2)c1 [Compound 42]
23,300 to 42000,COc1cc(CNS(=O)(=O)c2ccccc2C#N)nc(-c2ccccn2)c1 [Compound 40]
24,300 to 42000,COc1cc(CNS(=O)(=O)c2sc(Cl)nc2C)nc(-c2ccccn2)c1 [Compound 47]
25,300 to 42000,COc1cc(CNS(=O)(=O)c2c(C)cc(C)cc2C)nc(-c2ccccn2)c1 [Compound 75]

# System: SH-SY5Y human neuroblastoma cells
# Test: Protection against hydrogen peroxide-induced cell death
# Type: cell-based
# Conditions: Homo sapiens; SH-SY5Y cells, 1 h preincubation, 100 μM hydrogen peroxide, 24 h, LDH readout of live cells
# Experimental: The aim of this assay is to determine the neuroprotective effect of the compounds when human neuroblastoma cells are exposed to the oxidative stress induced by hydrogen peroxide, which leads to cell death. Therefore the protective effect of the compounds was measured by monitoring cell survival using a suitable commercial kit (Cytotoxicity Detection Kit, Roche Diagnostics GmbH, Mannheim, Germany) based on the quantification of the lactate dehydrogenase activity obtained from lysates of the remaining live cells with a colorimetric assay yielding absorbance at 492 nm as the final readout.
# SH-SY5Y human neuroblastoma cells were seeded into 96-well culture plate at a density of 10,000 cells/well. Cells were preincubated for one hour with different concentrations of the compound at a 1% (v/v) DMSO concentration in an equivolumetric mixture of Minimum Essential Medium (MEM) and Nutrient Mixture HAM F12 supplemented with 10% foetal bovine serum, 100 U/ml penicillin, 100 μg/ml streptomycin, 1 mM each of non-essential aminoacids (commercial preparation from GIBCO, Paisley, UK) and 2 mM L-glutamine. Hydrogen peroxide was then added to reach 100 μM and the incubation was extended for 24 h. Then the medium was removed and live cells, which remained attached to the bottom of the plate, were lysed by incubating them during 5 min with 50 μl of 1% (v/v) Triton X-100 in Krebs-Hepes buffer (10 mM Hepes pH7.3 with 145 mM NaCl, 5.5 mM KCl, 1 mM MgCl2, 2 mM CaCl2 and 1 mM glucose). This lysate was used to measure LDH activity using the commercial kit according to the manufacturer's instructions. In the culture plate several wells were included as a control of cell death, in these wells the cells were preincubated with 1% (v/v) DMSO before hydrogen peroxide addition. Likewise, several wells were included as control for full cell survival, in these wells the addition of H2O2 was omitted. The absorbance of each tested sample was normalized to that of the control wells, so that for every compound concentration the percentage of protective effect was calculated with the following equation:
# [formula] where “S” is the absorbance of the sample being considered, “E” is the average absorbance of wells used as control of full cell survival and “B” is the average absorbance of wells used as control of cell death. The values obtained at every compound concentration were finally used to calculate the EC50 (i.e., the concentration causing 50% of protective effect) of the tested compound. For that purpose the data were fitted to a classical 4-parameters isotherm equation using the nonlinear regression function of GraphPad™ Prism 5.0 (GraphPad Software Inc.), such equation is described below:
# [formula] where “L” is the lower asymptote of the theoretical sigmoidal curve, “H” is the higher asymptote, “C” is the concentration of compound and “n” is the Hill coefficient.
row,Structure (SMILES),EC50 [nM]
1,COc1cc(CN(Cc2cc(OC)cc(-c3ccccn3)n2)S(=O)(=O)c2cccs2)nc(-c2ccccn2)c1 [Compound 25],4950
2,COc1cc(CNS(=O)(=O)c2ccc(-c3cnco3)s2)nc(-c2ccccn2)c1 [Compound 55],1300
3,COc1cc(CNS(=O)(=O)c2cnc(Cl)s2)nc(-c2ccccn2)c1 [Compound 106],630
4,COc1cc(CNS(=O)(=O)c2cccc3scnc23)nc(-c2ccccn2)c1 [Compound 61],820
5,"COc1cc(CNS(=O)(=O)c2ccc(C(F)(F)F)cc2)nc(-c2ccccn2)c1 [Compound 4, N-(4-Methoxy-[2,2′]bipyridinyl-6-ylmethyl)-4-trifluoromethyl-benzenesulfonamide]",2600
6,COc1cc(CNS(=O)(=O)c2cc3ccccc3o2)nc(-c2ccccn2)c1 [Compound 62],1880
7,"COc1cc(CNS(=O)(=O)c2ccc(S(C)(=O)=O)cc2)nc(-c2ccccn2)c1 [Compound 22, 4-Methanesulfonyl-N-(4-methoxy-[2,2′]bipyridinyl-6-ylmethyl)-benzenesulfonamide]",880
8,"COc1cc(CNS(=O)(=O)N2CCOCC2)nc(-c2ccccn2)c1 [Compound 20, Morpholine-4-sulfonic acid (4-methoxy-[2,2′]bipyridinyl-6-ylmethyl)-amide]",5100
9,"COc1cc(CNS(=O)(=O)c2ccc3ccccc3c2)nc(-c2ccccn2)c1 [Compound 15, Naphthalene-2-sulfonic acid (4-methoxy-[2,2′]bipyridinyl-6-ylmethyl)-amide]",4800
10,"COc1cc(CNS(=O)(=O)c2cccnc2)nc(-c2ccccn2)c1 [Compound 21, Pyridine-3-sulfonic acid (4-methoxy-[2,2′]bipyridinyl-6-ylmethyl)-amide]",5190
11,"COc1cc(CNS(=O)(=O)c2ccc(C)cc2)nc(-c2ccccn2)c1 [Compound 3, N-(4-Methoxy-[2,2′]bipyridinyl-6-ylmethyl)-4-methyl-benzenesulfonamide]",23000
12,"COc1cc(CNS(=O)(=O)C2CCCCC2)nc(-c2ccccn2)c1 [Compound 7, Cyclohexanesulfonic acid (4-methoxy-[2,2′]bipyridinyl-6-ylmethyl)-amide]",11200
13,COc1cc(CNS(=O)(=O)c2c(F)cccc2F)nc(-c2ccccn2)c1 [Compound 58],1600
14,COc1cc(CNS(=O)(=O)c2ccc(-c3cc(C)no3)o2)nc(-c2ccccn2)c1 [Compound 79],720
15,"COc1cc(CNS(=O)(=O)C(F)(F)F)nc(-c2ccccn2)c1 [Compound 17, C,C,C-Trifluoro-N-(4-methoxy-[2,2′]bipyridinyl-6-ylmethyl)-methanesulfonamide]",820
16,"COc1cc(CNS(=O)(=O)Cc2ccc(C(F)(F)F)cc2)nc(-c2ccccn2)c1 [Compound 23, N-(4-Methoxy-[2,2′]bipyridinyl-6-ylmethyl)-C-(4-trifluoromethyl-phenyl)-methanesulfonamide]",2910
17,COc1cc(CNS(=O)(=O)c2cccc3cccnc23)nc(-c2ccccn2)c1 [Compound 60],3200
18,COc1cc(CNS(=O)(=O)c2c(C)noc2C)nc(-c2ccccn2)c1 [Compound 54],23100
19,COc1cc(CNS(=O)(=O)c2ccc(Cl)cc2F)nc(-c2ccccn2)c1 [Compound 57],1500
20,COc1cc(CNS(=O)(=O)c2cccc(Cl)c2Cl)nc(-c2ccccn2)c1 [Compound 95],1090
21,"COc1cc(CNS(C)(=O)=O)nc(-c2ccccn2)c1 [Compound 5, N-(4-Methoxy-[2,2′]bipyridinyl-6-ylmethyl)-methanesulfonamide]",39800
22,COc1cc(CNS(=O)(=O)c2cc(F)ccc2F)nc(-c2ccccn2)c1 [Compound 59],4800
23,"COc1cc(CNS(=O)(=O)c2cc(OC)ccc2OC)nc(-c2ccccn2)c1 [Compound 1, 2,5-Dimethoxy-N-(4-methoxy-[2,2′]bipyridinyl-6-ylmethyl)-benzenesulfonamide]",36000
